Experiment: xn = mol fraction of the nth substance listed
Settings: 101 kPa

CCCC[n+]1ccn(C)c1.F[P-](F)(F)(F)(F)F + O
electrical conductivity [S/m]
Settings	293.2 K	298.2 K	303.2 K	308.2 K	313.2 K	318.2 K	323.2 K	333.2 K	343.2 K	353.2 K
x2 = 0.05	0.181	–	0.291	0.351	0.423	–	0.592	0.701	0.833	1.06
x2 = 0.1	–	0.268	0.331	–	0.488	0.563	–	0.797	0.928	1.22
x2 = 0.15	0.235	–	0.382	0.469	–	0.675	0.792	0.923	–	–
x2 = 0.2	0.29	0.364	0.448	–	0.652	–	0.911	–	1.23	–
